{
  "source": "patent US6855730B2",
  "about": "“3-methylidenyl-2-indolinone modulators of protein kinase” (Sugen, Inc., priority 1998, dated 2005)",
  "key": {"src protein kinase": {"target": "T1, src protein kinase (Gallus gallus, UniProt P00523)", "T1 construct": "host or cells: Schizosaccharomyces pombe SP200", "assay": "Biochemical SRC assay (phosphorylation of biotinylated peptide)", "settings": "read-out: bio src IC50", "protocol": "This assay is used to determine src protein kinase activity measuring phosphorylation of a biotinylated peptide as the readout.\nYeast transformed with src (Sugen, Inc., Redwood City, Calif.). • b. Cell lysates: Yeast cells expressing src are pelleted, washed once with water, re-pelleted and stored at −80° C. until use. • c. N-terminus biotinylated [sequence] is prepared by standard procedures well known to those skilled in the art. • d. DMSO: Sigma, St. Louis, Mo. • e. […] Vecastain ELITE ABC reagent: Vector, Burlingame, Calif. • h. […] S. Pombe strain SP200 (h-s leul.32 ura4 ade210) is grown as described and transformations are pRSP expression plasmids are done by the lithium acetate method (Superti-Furga, supra). Cells are grown in the presence of 1 μM thiamine to repress expression from the nmtl promoter or in the absence of thiamine to induce expression. • i. […] Turbo TMB-ELISA peroxidase substrate: Pierce Chemical.\nBuffer Solutions • a. PBS (Dulbecco's Phosphate-Buffered Saline): GIBCO PBS, GIBCO Cat. #450-1300EB. • b. Blocking Buffer: 5% Non-fat milk (Carnation) in PBS. • c. Carbonate Buffer: Na2CO4 from Fischer, Cat. # S495, make up 100 mM stock solution. • d. Kinase Buffer: 1.0 ml (from 1M stock solution) MgCl2, 0.2 ml (from a 1M stock solution) MnCl2, 0.2 ml (from a 1M stock solution) DTT, 5.0 ml (from a 1M stock solution) HEPES, 0.1 ml TX-100, bring to 10 ml total volume with MilliQ H2O. • e. […] NaCl: Fischer Cat. # S271-10, Make up 5M stock solution with MilliQ H2O. • i. […] MgCl2: Fischer Cat. # M33-500, make up 1M stock solution with MilliQ H2O. • k. […] MnCl2: Fischer Cat. # M87-100, make up 1M stock solution with MilliQ H2O. • n. DTT: -Fischer Cat. # BP172-5. • o. […] Kinase Reaction Mixture: Amount per assay plate (100 wells): 1.0 ml Kinase Buffer, 200 λg GST-ζ, bring to final volume of 8.0 ml with MilliQ H2O. • q. […] Then add 1 drop of reagent B. Put tube on orbital shaker at room temperature and mix for 30 minutes.\nPreparation of src Coated ELISA Plate. • 1. Coat ELISA plate with 0.5 μg/well anti-src mab in 100 μl of pH 9.6 sodium carbonate buffer, hold at 40° C. overnight. • 2. Wash wells once with PBS. • 3. […] Wash plate 5× with PBS. • 5. Add 10 μg/well of src transformed yeast lysates diluted in Lysis Buffer (0.1 ml total volume per well). (Amount of lysate may vary between batches.) Shake plate for 20 minutes at room temperature.\nPreparation of Phosphotyrosine Antibody-coated ELISA Plate. • 1. 4G10 plate: coat 0.5 μg/well 4G10 in 100 μl PBS overnight at 4° C. and block with 150 μl of 5% milk in PBS for 30 minutes at room temperature.\nKinase Assay Procedure. • 1. Remove unbound proteins from plates and wash plates 5× with PBS. • 2. […] Wash plate 5× with TBST. • 10. Incubate with Vectastain ELITE ABC reagent (100 μl/well) for 30 min. at room temperature. • 11. Wash the wells 5× with TBST. • 12. Develop with Turbo TMB."}, "PDGFR-β": {"target": "T2, PDGFR-β (Homo sapiens, UniProt P09619)", "T2 construct": "host or cells: NIH 3T3", "T2 sequence (P09619 33-1106)": "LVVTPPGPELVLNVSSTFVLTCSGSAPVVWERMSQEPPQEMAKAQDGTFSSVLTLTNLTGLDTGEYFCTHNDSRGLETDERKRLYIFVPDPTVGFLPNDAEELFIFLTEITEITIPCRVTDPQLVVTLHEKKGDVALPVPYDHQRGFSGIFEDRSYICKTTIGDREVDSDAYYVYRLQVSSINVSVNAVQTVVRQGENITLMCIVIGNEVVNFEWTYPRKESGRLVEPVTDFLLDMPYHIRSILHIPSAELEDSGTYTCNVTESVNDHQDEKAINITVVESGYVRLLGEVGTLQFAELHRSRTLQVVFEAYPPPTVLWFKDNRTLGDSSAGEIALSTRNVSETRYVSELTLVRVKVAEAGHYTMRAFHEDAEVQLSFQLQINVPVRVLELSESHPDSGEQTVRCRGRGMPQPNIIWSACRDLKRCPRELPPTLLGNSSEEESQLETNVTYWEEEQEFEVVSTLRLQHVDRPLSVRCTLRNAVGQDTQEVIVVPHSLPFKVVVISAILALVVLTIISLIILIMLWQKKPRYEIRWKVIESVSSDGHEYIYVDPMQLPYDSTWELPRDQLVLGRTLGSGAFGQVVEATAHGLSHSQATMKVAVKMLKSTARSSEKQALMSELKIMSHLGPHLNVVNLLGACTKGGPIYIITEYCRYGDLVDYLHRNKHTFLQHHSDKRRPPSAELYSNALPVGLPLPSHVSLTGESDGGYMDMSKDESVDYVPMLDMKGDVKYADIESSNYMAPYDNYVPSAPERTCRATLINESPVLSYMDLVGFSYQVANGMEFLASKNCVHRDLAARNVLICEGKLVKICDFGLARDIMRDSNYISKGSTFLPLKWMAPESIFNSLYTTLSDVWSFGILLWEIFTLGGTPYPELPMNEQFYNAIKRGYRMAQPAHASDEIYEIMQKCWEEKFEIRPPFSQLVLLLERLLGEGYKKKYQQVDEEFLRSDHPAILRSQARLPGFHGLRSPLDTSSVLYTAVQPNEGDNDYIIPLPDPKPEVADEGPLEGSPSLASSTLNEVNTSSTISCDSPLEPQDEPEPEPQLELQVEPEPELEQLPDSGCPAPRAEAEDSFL", "assay": "Biochemical PDGFR assay (ELISA, PDGFR-β expressing NIH 3T3 cell lysate)", "settings": "read-out: bio PDGF IC50", "method_in_brief": "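Phosphorylation was read by ELISA (anti-phosphotyrosine serum, peroxidase secondary, ABTS at 410 nm) after a 30 min room-temperature reaction with 20 μM ATP, EDTA-stopped. Kinase was lysate-derived PDGFR-β (NIH 3T3) immobilised via 28D4C10 antibody, compound added 30 min before ATP.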"}, "[1]": {"target": "T3, 3T3 cell line genetically engineered to express human PDGF-R (Homo sapiens, UniProt P09619)", "T3 construct": "expressed in transfected cells; host or cells: 3T3", "assay": "PDGF-induced BrdU incorporation assay", "type": "cell-based", "protocol": "The general procedure is as follows: a compound is introduced to cells expressing the test kinase, either naturally or recombinantly, for a selected period of time after which, if the test kinase is a receptor, a ligand known to activate the receptor is added. […] The cellular/biologic assays described herein measure the amount of DNA made in response to activation of a test kinase, which is a general measure of a proliferative response. The general procedure for this assay is as follows: a compound is introduced to cells expressing the test kinase, either naturally or recombinantly, for a selected period of time after which, if the test kinase is a receptor, a ligand known to activate the receptor is added. After incubation at least overnight, a DNA labeling reagent such as Bromodeoxyuridine (BrdU) or 3H-thymidine is added. The amount of labeled DNA is detected with either an anti-BrdU antibody or by measuring radioactivity and is compared to control cells not contacted with a test compound.\nPDGF-Induced BrdU Incorporation Assay\nProtocol • (1) Cells are seeded at 8000 cells/well in DMEM, 10% CS, 2mM Gln in a 96 well plate. […] The negative control wells receive serum free DMEM with 0.1% BSA only, the positive control cells receive the ligand (PDGF) but no test compound. […] FixDenat solution is added (50 μ/well) and the plates are incubated at room temperature for 45 minutes on a plate shaker. • (6) The FixDenat solution is thoroughly removed by decanting and tapping the inverted plate on a paper towel. Milk is added (5% dehydrated milk in PBS, 200 μ/well) as a blocking solution and the plate is incubated for 30 minutes at room temperature on a plate shaker. • (7) The blocking solution is removed by decanting and the wells are washed once with PBS. Anti-BrdU-POD solution (1:100 dilution in PBS, 1% BSA) is added (100 μl/well) and the plate is incubated for 90 minutes at room temperature on a plate shaker. • (8) The antibody conjugate is thoroughly removed by decanting and rinsing the wells 5 times with PBS, and the plate is dried by inverting and tapping on a paper towel. • (9) TMB substrate solution is added (100 μl/well) and incubated for 20 minutes at room temperature on a plate shaker until color development is sufficient for photometric detection. • (10) The absorbance of the samples are measured at 410 nm (in “dual wavelength” mode with a filter reading at 490 nm, as a reference wavelength) on a Dynatech ELISA plate reader."}, "[2]": {"settings": "read-out: PDGF-Induced BrdU Incorp. IC50"}},
  "note": "Where two headings read alike, the source gives them in different places.",
  "data": [
    {"smiles": "CN(C)CCCc1c(/C=C2\\C(=O)Nc3ccccc32)[nH]c2c1CCCC2", "note": "[Example 198, 3-[3-(3-Dimethylaminopropyl)-4,5,6,7-tetrahydro-1H-indol-2-ylmethylene]-1,3-dihydroindol-2-one]", "values": [
      {"measurement": "IC50", "setting": "src protein kinase", "result": 2.34, "unit": "µM"},
      {"measurement": "IC50", "setting": "PDGFR-β", "result": 0.04, "unit": "µM"},
      {"measurement": "IC50", "setting": "[1]; [2]", "result": 4.2, "unit": "µM"}
    ]},
    {"smiles": "O=C(CCc1c(/C=C2\\C(=O)Nc3ccccc32)[nH]c2c1CCCC2)NCCN1CCOCC1", "note": "[Example 202, N-(2-Morpholin-4-ylethyl)-3-[2-(2-oxo-1,2-dihydroindol-3-ylidenemethyl)-4,5,6,7-tetrahydro-1H-indol-3-yl]-propionamide]", "values": [
      {"measurement": "IC50", "setting": "src protein kinase", "result": "> 50", "unit": "µM"},
      {"measurement": "IC50", "setting": "PDGFR-β", "result": 9.58, "unit": "µM"},
      {"measurement": "IC50", "setting": "[1]; [2]", "result": 5.2, "unit": "µM"}
    ]},
    {"smiles": "Cc1c[nH]c(/C=C2\\C(=O)Nc3ccccc32)c1CCC(=O)O", "note": "[Example 215, 3-[4-Methyl-2-(2-oxo-1,2-dihydroindol-3-ylidenemethyl)-1H-pyrrol-3-yl]-propionic acid]", "values": [
      {"measurement": "IC50", "setting": "src protein kinase", "result": 5.59, "unit": "µM"},
      {"measurement": "IC50", "setting": "PDGFR-β", "result": 0.5, "unit": "µM"},
      {"measurement": "IC50", "setting": "[1]", "result": 20, "unit": "µM"}
    ]},
    {"smiles": "COc1ccc2c(c1)NC(=O)/C2=C\\c1[nH]cc(C)c1CCC(=O)O", "note": "[Example 217, 3-[2-(6-Methoxy-2-oxo-1,2-dihydroindol-3-ylidenemethyl)-4-methyl-1H-pyrrol-3-yl]-propionic acid]", "values": [
      {"measurement": "IC50", "setting": "src protein kinase", "result": 3.68, "unit": "µM"},
      {"measurement": "IC50", "setting": "PDGFR-β", "result": 0.21, "unit": "µM"},
      {"measurement": "IC50", "setting": "[1]; [2]", "result": 8.7, "unit": "µM"}
    ]},
    {"smiles": "Cc1c[nH]c(C=C2C(=O)Nc3cc(Cl)ccc32)c1CCC(=O)O", "note": "[Example 219, 3-[2-(6-Chloro-2-oxo-1,2-dihydroindol-3-ylidenemethyl)-4-methyl-1H-pyrrol-3-yl]-propionic acid]", "values": [
      {"measurement": "IC50", "setting": "src protein kinase", "result": 0.08, "unit": "µM"},
      {"measurement": "IC50", "setting": "PDGFR-β", "result": 0.47, "unit": "µM"},
      {"measurement": "IC50", "setting": "[1]; [2]", "result": 7.9, "unit": "µM"}
    ]},
    {"smiles": "Cc1c[nH]c(/C=C2\\C(=O)Nc3ccc(Br)cc32)c1CCC(=O)O", "note": "[Example 220, 3-[2-(5-Bromo-2-oxo-1,2-dihydroindol-3-ylidenemethyl)-4-methyl-1H-pyrrol-3-yl]-propionic acid]", "values": [
      {"measurement": "IC50", "setting": "src protein kinase", "result": 6.48, "unit": "µM"},
      {"measurement": "IC50", "setting": "PDGFR-β", "result": 0.62, "unit": "µM"},
      {"measurement": "IC50", "setting": "[1]; [2]", "result": 8.5, "unit": "µM"}
    ]},
    {"smiles": "COc1ccc2c(c1)/C(=C/c1[nH]cc(C)c1CCC(=O)O)C(=O)N2", "note": "[Example 222, 3-[2-(5-Methoxy-2-oxo-1,2-dihydroindol-3-ylidenemethyl)-4-methyl-1H-pyrrol-3-yl]-propionic acid]", "values": [
      {"measurement": "IC50", "setting": "src protein kinase", "result": 5.77, "unit": "µM"},
      {"measurement": "IC50", "setting": "PDGFR-β", "result": 3.75, "unit": "µM"},
      {"measurement": "IC50", "setting": "[1]; [2]", "result": "> 50", "unit": "µM"}
    ]}
  ]
}
